# According to patent US7842817B2, “2-amino benzimidazole derivatives and their use as modulators of small-conductance calcium-activated potassium channels” (Neurosearch A/S, priority 2005, dated 2010):
# Structures can show the parent of a compound that is named as a salt.
row,melting point,Compound
1,259 to 260 °C,"N=c1n(Cc2ccc(F)c(F)c2)c2ccccc2n1-c1ccc(F)c(F)c1 (as salt: hydrobromid) [Example 13, 1-(3,4-Difluorobenzyl)-3-(3,4-difluorophenyl)-1,3-dihydrobenzoimidazol-2-ylideneamine]"
2,236 to 238 °C,"Fc1ccc(Cn2c(Nc3ccc(F)c(F)c3)nc3ccccc32)cc1F (as salt: hydrochloride) [Example 5, N-[1-(3,4-Difluorobenzyl)benzimidazol-2-yl]-3,4-difluoroaniline]"
3,185 to 187 °C,"N=c1n(Cc2ccc(Cl)cc2)c2ccccc2n1Cc1ccc(Cl)cc1 [Example 1, 1,3-Bis(4-chlorobenzyl)-1,3-dihydrobenzoimidazol-2-ylideneamine]"
4,145 to 146 °C,"N=c1n(Cc2ccc(Cl)c(Cl)c2)c2ccccc2n1Cc1ccc(Cl)c(Cl)c1 [Example 2, 1,3-Bis(3,4-dichlorobenzyl)-1,3-dihydrobenzoimidazol-2-ylideneamine]"
5,148 to 150 °C,"N=c1n(Cc2ccc(F)cc2)c2ccccc2n1Cc1ccc(F)cc1 [Example 3, 1,3-Bis(4-fluorobenzyl)-1,3-dihydrobenzoimidazol-2-ylideneamine]"
6,114 to 117 °C,"N=c1n(Cc2ccc(F)c(F)c2)c2ccccc2n1Cc1ccc(F)c(F)c1 [Example 4, 1,3-Bis(3,4-difluorobenzyl)-1,3-dihydrobenzoimidazol-2-ylideneamine]"
7,167 to 170 °C,"Fc1ccc(Cn2c(Nc3ccc(C(F)(F)F)cc3)nc3ccccc32)cc1F [Example 7, N-[1-(3,4-Difluorobenzyl)benzimidazol-2-yl]-4-trifluoromethylaniline]"
8,88 to 92 °C,"FC(F)(F)c1cc(Cn2c(Nc3ccc(Cl)c(C(F)(F)F)c3)nc3ccccc32)ccc1Cl [Example 8, N-[1-(4-Chloro-3-trifluoromethylbenzyl)benzimidazol-2-yl]-4-chloro-3-trifluoromethylaniline]"
9,158 to 161 °C,"Fc1ccc(CNc2nc3ccccc3n2Cc2ccc(Cl)c(C(F)(F)F)c2)cc1F [Example 9, N-[1-(4-Chloro-3-trifluoromethylbenzyl)benzimidazol-2-yl]-3,4-difluorobenzylamine]"
10,144 to 145 °C,"N=c1n(Cc2cc(F)cc(F)c2)c2ccccc2n1Cc1cc(F)cc(F)c1 [Example 12, 1,3-Bis(3,5-difluorobenzyl)-1,3-dihydrobenzoimidazol-2-ylideneamine]"
11,> 166 °C (dec.),"N=c1n(Cc2ccc(F)c(F)c2)c2ccc(F)cc2n1Cc1ccc(F)c(F)c1 [Example 15, 1,3-Bis(3,4-difluorobenzyl)-5-fluoro-1,3-dihydrobenzoimidazol-2-ylideneamine]"
12,175 to 177 °C,"N=c1n(Cc2cccc(C(F)(F)F)c2)c2ccccc2n1Cc1cccc(C(F)(F)F)c1 [Example 16, 1,3-Bis[3-(trifluoromethyl)benzyl]-1,3-dihydrobenzoimidazol-2-ylideneamine]"
13,88 to 89.5 °C,"N=c1n(Cc2ccc(F)c(F)c2)c2ccc(Br)cc2n1Cc1ccc(F)c(F)c1 [Example 17, 1,3-Bis(3,4-difluorobenzyl)-5-bromo-1,3-dihydrobenzoimidazol-2-ylideneamine]"
14,158.5 to 159.5 °C,"Fc1ccc(CNc2nc3ccccc3n2-c2ccc(F)c(F)c2)cc1F [Example 19, (3,4-Difluorobenzyl)-[1-(3,4-difluorophenyl)-1H-benzoimidazol-2-yl]amine]"
15,115 to 117 °C,"Fc1ccc(Nc2nc3ccccc3n2-c2ccc(F)c(F)c2)cc1F [Example 20, (3,4-Difluorophenyl)-[1-(3,4-difluorophenyl)-1H-benzoimidazol-2-yl]amine]"
